US11180501B2, “Crystal form of β-lactamase inhibitor and preparation method therefor” (priority 2017, dated 2021)
Converted amounts (≈) assume the structure as drawn. Read-outs that look alike come from different tables or passages of the source. Values belong to the compound of their own block, whether it stands above or below them.

Assays:
[1] = tested on: NDM-1 carbapenemase-producing Klebsiella Pneumoniae; experiment: In vitro synergistic inhibitory concentration (SIC) assay, broth microdilution MIC; format: cell-based; details: for MIC50 / MIC90: Klebsiella pneumoniae; for MIC50 / MIC90 / drug resistance rate / sensitive rate / MIC range: NDM-1, 8 strains; for MIC50 / MIC90 / MIC range: enzyme inhibitor fixed at 4 g/mL (so in the source); for drug resistance rate / sensitive rate: by the S/R criteria
Description: (§1) The minimum inhibitory concentration (MIC) of the compound of formula (I) against clinically isolated carbapenemase-producing strains was determined by the broth microdilution method.
(§2) 1. Drug susceptibility test: the MIC of commonly used antibacterial drugs against clinically isolated bacteria was determined by the broth microdilution method according to the antimicrobial susceptibility test method described in the 2016 edition of the U.S. Clinical and Laboratory Standards Institute (CLSI) document.
(§3) 2. Strains: 8 KPC-2 carbapenemase-producing strains, 8 NDM-1 metalloenzyme-producing strains, 6 OXA carbapenemase-producing strains, and all strains were clinically isolated Klebsiella pneumoniae.
(§4) 4. Quality control strains: the quality control strains for the drug susceptibility test included Escherichia coli ATCC 25922 and ATCC 35218.

[2] = tested on: OXA-181 carbapenemase-producing Klebsiella Pneumoniae; experiment: as above; format: cell-based; details: for MIC50 / MIC90: Klebsiella pneumoniae; for drug resistance rate / sensitive rate: by the S/R criteria
Description: as §1, §2
2. […]
as §4

[3] = tested on: KPC-2 carbapenemase-producing Klebsiella Pneumoniae; experiment: as above; format: cell-based; details: for drug resistance rate / sensitive rate: by the S/R criteria; for MIC90 / MIC50: Klebsiella pneumoniae
Description: as §1, §2, §3, §4

[4] = Thermal gravimetric analysis (TGA); format: physicochemical
Description: 1.3 Thermal Gravimetric Analyzer (TGA)
Instrument Model: TA Q5000 thermal gravimetric analyzer
Detection method: samples (2 mg to 5 mg) were placed in a TGA platinum crucible for detection, and heated from room temperature to 210° C. with a heating rate of 10° C./min under the condition of 25 mL/min N2.

[5] = Solubility test of the crystal form A; format: physicochemical; details: thermodynamic from solid, room temperature
Description: Experimental Method: about 2.0 mg sample was weighed and placed into a 1.5 mL borosilicate glass bottle, followed by addition of the following solvents with a pipetting gun respectively, and appropriate ultrasonic treatment was performed for dissolving. The test was carried out at room temperature, and the dissolution was detected by naked eye.

[6] = Hygroscopicity by dynamic vapor sorption (DVS); format: physicochemical
Description: 1.4 Dynamic Vapor Sorption (DVS) Instrument model: SMS DVS Advantage dynamic vapor sorption analyzer Detection conditions: samples (10 mg to 15 mg) were placed in a DVS sample tray for detection. The detailed DVS parameters are as follows: Temperature: 25° C. Equilibrium: dm/dt=0.01%/min (shortest: 10 min, longest: 180 min) Drying: 120 minutes at 0% RH RH (%) gradient for testing: 10% RH (%) gradient range for testing: 0%-90%-0% The hygroscopicity was evaluated using the following scales: [table] Experimental Method: a sample (10-15 mg) was placed in a DVS sample tray for testing, and analyzed by dynamic vapor sorption (DVS) method.

pKa of side-chain group = format: physicochemical; details: guanidinoxy group
[7] = Study on polymorphism, solvent scheme 2 (dissolved, evaporated to dryness); format: physicochemical; details: 40° C. 2 days, XRPD
Description: 2. Three samples of about 35 mg of compound of formula (I) were weighed and placed into 1.5 mL borosilicate glass bottles, respectively, followed by addition of 600 μL of a solvent (see Table 3 for the solvent scheme). The obtained mixture was mixed evenly with ultrasound and then placed on a thermostatic oscillator, stirred at 40° C. in the dark for 2 days. Then the samples was placed into a fume hood and evaporated to dryness. The obtained samples were subjected to XRPD detection (wet product). The samples were placed in a vacuum dryer and dried at 30° C. for about 15 hours. The obtained dried samples were subjected to XRPD detection (dry product).

[8] = tested on: Klebsiella pneumoniae (ATCC BAA-1705, KPC-2); experiment: Mouse lung infection model; format: in vivo; details: female CD-1 mice, ip, with ceftazidime, FIG. 5
Description: Female CD-1 mice of about 7 weeks old, weighing 26-28 g; cyclophosphamide was injected at a dose of 150 mg/kg 4 days before infection, and further 100 mg/kg 1 day before infection; the bacteria for infection was Klebsiella pneumoniae (ATCC BAA-1705, KPC-2). The compound of formula (I) and the reference compound OP-0595 were synthesized in the laboratory.
Female CD-1 mice were infected with Klebsiella pneumoniae by intranasal instillation. Each mouse was instilled with 50 μL of bacterial liquid through nasal cavity at a dose of 3.14E+07 CFU per mouse. At 2 h, 4 h, 6 h and 8 h after infection, each group of mice were treated with a corresponding compound or a combination of compounds by intraperitoneal injection.
At 10 h after infection, the mice in groups 1, 2 and 3 were euthanized, and the lungs were taken out and placed in 50 mL centrifuge tubes containing 10 mL of sterile normal saline, the tubes were placed on wet ice and transferred to BSL-2 laboratory for CFU counting. […]
The lungs were ground with an IKA T10 homogenizer (the maximum speed was 20S, repeated once). […] After 24 hours, the plate was taken out and the number of single colonies grown in each homogenate with a gradient dilution on the plate was counted, and the amount of bacterial load in the lung of each mouse was calculated.

[9] = Study on polymorphism, solvent scheme 1 (suspension); format: physicochemical; details: 40° C. in the dark for 2 days, XRPD
Description: 1. Three samples of about 35 mg of the compound of formula (I) were weighed and placed into 1.5 mL borosilicate glass bottles, respectively, followed by addition of 200 μL of solvent (see Table 2 for the solvent scheme). The obtained mixture was mixed evenly with ultrasound and then placed on a thermostatic oscillator, stirred at 40° C. in the dark for 2 days, and centrifuged quickly. The obtained solid was subjected to XRPD detection (wet product), and then dried in a vacuum dryer at 30° C. for about 15 hours. The obtained dry product was subjected to XPRD detection (dry product).

[10] = OXA-181, 7 strains, enzyme inhibitor fixed at 4 g/mL (so in the source)
[11] = KPC-2, 8 strains, enzyme inhibitor fixed at 4 g/mL (so in the source)

Structure (SMILES): C[C@@H](O)[C@H]1C(=O)N2C(C(=O)O)=C(S[C@@H]3CN[C@H](C(=O)N(C)C)C3)[C@H](C)[C@H]12 [Meropenem]
- MIC50 [2, 10]: 0.5 µg/mL
- MIC90 [2, 10]: 2 µg/mL
- drug resistance rate ([2]; OXA-181, 7 strains): 0
- sensitive rate ([2]; OXA-181, 7 strains): 85.7
- MIC range [2, 10]: 0.5 to 2 µg/mL
- drug resistance rate ([3]; KPC-2, 8 strains): 100
- sensitive rate ([3]; KPC-2, 8 strains): 0
- MIC90 [3]: 128 µg/mL
- MIC50 [3, 11]: 64 µg/mL
- MIC50 [1]: 4 µg/mL
- MIC90 [1]: 32 µg/mL
- drug resistance rate [1]: 75
- sensitive rate [1]: 0
- MIC range [1]: 2 to 32 µg/mL

Structure (SMILES): CC(C)(O/N=C(\C(=O)N[C@@H]1C(=O)N2C(C(=O)[O-])=C(C[n+]3ccccc3)CS[C@H]12)c1csc(N)n1)C(=O)O [Ceftazidime]
- MIC50 [2, 10]: > 128 µg/mL
- MIC90 [2, 10]: > 128 µg/mL
- drug resistance rate ([2]; OXA-181, 7 strains): 100
- sensitive rate ([2]; OXA-181, 7 strains): 0
- drug resistance rate ([3]; KPC-2, 8 strains): 100
- sensitive rate ([3]; KPC-2, 8 strains): 0
- MIC range [3, 11]: 64 to 128 µg/mL
- MIC50 [3, 11]: > 128 µg/mL
- MIC90 ([3]; KPC-2, 8 strains, enzyme inhibitor fixed at 4 g/mL (so in the source), read-out: MIC90): > 128 µg/mL
- MIC50 [1]: > 128 µg/mL
- MIC90 [1]: > 128 µg/mL
- drug resistance rate [1]: 100
- sensitive rate [1]: 0
- MIC range [1]: >128 µg/mL

Structure (SMILES): N=C(N)NOCCONC(=O)C1CCC2CN1C(=O)N2OS(=O)(=O)O (stereo not drawn)
- thermal stability ([4]; TGA): good thermal stability
- TGA weight loss ([4]; heated to 194.61° C.): 0.5689%
- solubility ([5]; aqueous with cosolvent or surfactant or cyclodextrin, Acetone-water (1:2)): 20500 to 34200 µg/mL (≈ 53.6 to 89.4 mM)
- solubility ([5]; aqueous with cosolvent or surfactant or cyclodextrin, Acetonitrile-water (1:1)): > 103000 µg/mL
- solubility ([5]; aqueous with cosolvent or surfactant or cyclodextrin, Ethanol-water (1:1)): 10100 to 20200 µg/mL (≈ 26.4 to 52.8 mM)
- solubility ([5]; aqueous with cosolvent or surfactant or cyclodextrin, Ethanol-water (3:1)): < 2000 µg/mL
- solubility ([5]; aqueous with cosolvent or surfactant or cyclodextrin, Isopropanol-water (1:1)): 6800 to 10200 µg/mL (≈ 17.8 to 26.7 mM)
- solubility ([5]; aqueous with cosolvent or surfactant or cyclodextrin, Methanol-water (1:1)): 4100 to 5200 µg/mL (≈ 10.7 to 13.6 mM)
- solubility ([5]; aqueous with cosolvent or surfactant or cyclodextrin, Methanol-water (3:1)): 2100 to 2600 µg/mL (≈ 5.49 to 6.8 mM)
- solubility ([5]; organic solvent or mixture, 1,4-Dioxane): < 2100 µg/mL
- solubility ([5]; organic solvent or mixture, 2-Methyltetrahydrofuran): < 2000 µg/mL
- solubility ([5]; organic solvent or mixture, Acetone): < 1900 µg/mL
- solubility ([5]; organic solvent or mixture, Acetonitrile): < 1900 µg/mL
- solubility ([5]; organic solvent or mixture, Butanone): < 2000 µg/mL
- solubility ([5]; organic solvent or mixture, Cyclohexane): < 2100 µg/mL
- solubility ([5]; organic solvent or mixture, Ethanol): < 1900 µg/mL
- solubility ([5]; organic solvent or mixture, Ethyl acetate): < 2000 µg/mL
- solubility ([5]; organic solvent or mixture, Isopropanol): < 2000 µg/mL
- solubility ([5]; organic solvent or mixture, Isopropyl acetate): < 2000 µg/mL
- solubility ([5]; organic solvent or mixture, Methanol): < 1900 µg/mL
- solubility ([5]; organic solvent or mixture, Methyl isobutyl ketone): < 2000 µg/mL
- solubility ([5]; organic solvent or mixture, Methyl tert-butyl ether): < 2000 µg/mL
- solubility ([5]; organic solvent or mixture, Tetrahydrofuran): < 2000 µg/mL
- solubility ([5]; organic solvent or mixture, Toluene): < 2000 µg/mL
- solubility ([5]; organic solvent or mixture, n-Butanol): < 2000 µg/mL
- solubility ([5]; organic solvent or mixture, n-Heptane): < 2000 µg/mL
- solubility ([5]; Water): 10200 to 20400 µg/mL (≈ 26.7 to 53.4 mM)
- hygroscopic weight gain ΔW ([6]; DVS, 25° C./80% RH): 0.2910%
- hygroscopicity scale ([6]; DVS, 25° C./80% RH): low hygroscopicity
- crystal form after DVS (XRPD) ([6]; after DVS test): the crystal form has not changed

Further lines, with some results ahead:

- MIC50 [1]: 64 µg/mL
Structure (SMILES): C[C@H]1[C@H](NC(=O)/C(=N\OC(C)(C)C(=O)O)c2csc(N)n2)C(=O)N1S(=O)(=O)O [Aztreonam]

- pKa (pKa of side-chain group): 8.83
- Crystal form ([7]; Acetone-water (volume ratio 1:2)): Crystal form A
- Crystal form ([7]; Acetonitrile-water (volume ratio 1:1)): Crystal form A
- Crystal form ([9]; Acetone): Crystal form A
- Crystal form ([9]; Acetonitrile): Crystal form A
- Crystal form ([9]; Cyclohexane): Crystal form A
- Crystal form ([9]; Ethanol): Crystal form A
- Crystal form ([9]; Ethanol-water (volume ratio 1:1)): Crystal form A
- Crystal form ([9]; Ethanol-water (volume ratio 3:1)): Crystal form A
- Crystal form ([9]; Ethyl acetate): Crystal form A
- Crystal form ([9]; Isopropanol-water (volume ratio 1:1)): Crystal form A
- Crystal form ([9]; Methanol): Crystal form A
- Crystal form ([9]; Methanol-water (volume ratio 1:1)): Crystal form A
- Crystal form ([9]; Methanol-water (volume ratio 3:1)): Crystal form A
- Crystal form ([9]; Tetrahydrofuran): Crystal form A
- Crystal form ([9]; Water): Crystal form A
Structure (SMILES): N=C(N)NOCCONC(=O)C1CCC2CN1C(=O)N2OS(=O)(=O)O (stereo not drawn) [the compound of formula (I)]
- reduction of the amount of bacterial load in the lung versus the reference group of OP-0595 ([8]; at two different doses (25 & 6.25 mpk; 50 & 12.5 mpk)): 0.5-1.5 logs
- potency compared with OP-0595 [8]: significantly more potent than the reference compound OP-0595
- antibacterial activity (conclusion) ([2]; in combination with an antibiotic, OXA-181 type): strong antibacterial activity
- antibacterial activity (conclusion) ([3]; in combination with an antibiotic, KPC-2 type): strong antibacterial activity
- inhibitory activity compared with avibactam ([1]; NDM-1 type carbapenemase-producing bacteria): significantly better than that of avibactam
- antibacterial activity (conclusion) ([1]; in combination with an antibiotic, NDM-1 type): strong antibacterial activity
